From ChEMBL document CHEMBL1131042, “beta-Lactam derivatives as inhibitors of human cytomegalovirus protease” (J Med Chem, 1998)
pIC50: −log10 of the molar value.

How the values were obtained:
[1] = Time taken to reduce 50% of the concentration of compound in blood plasma; type: ADME, tissue-based; conditions: human
Pancreatic elastase = Pancreatic elastase (Sus scrofa, UniProt P08419+P00772); assay: Compound was tested for its activity against porcine Pancreatic elastase; type: protein assay
Chymotrypsinogen A = Chymotrypsinogen A (Bos taurus, UniProt P00766); assay: Compound was tested for its activity against bovine pancreatic Alpha-chymotrypsin (BPC)
Neutrophil elastase = target: T1, Neutrophil elastase (Homo sapiens, UniProt P08246); assay: Compound was tested for its activity against human leukocyte elastase(HLE)
T1 sequence (P08246 whole entry): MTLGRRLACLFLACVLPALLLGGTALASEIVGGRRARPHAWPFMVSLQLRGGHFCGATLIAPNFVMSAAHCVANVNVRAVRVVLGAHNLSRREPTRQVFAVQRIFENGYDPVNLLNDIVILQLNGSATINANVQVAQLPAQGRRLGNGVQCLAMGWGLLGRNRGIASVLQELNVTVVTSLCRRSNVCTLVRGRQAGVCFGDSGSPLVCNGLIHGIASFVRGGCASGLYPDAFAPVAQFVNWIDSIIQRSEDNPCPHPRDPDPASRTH

| Structure (SMILES) | half-life [1] [h] | IC50 (Pancreatic elastase) [µM] | pIC50 (Chymotrypsinogen A) | pIC50 (Neutrophil elastase) |
| --- | --- | --- | --- | --- |
| O=C1C[C@H](Cc2ccccc2)N1C(=O)NCCc1ccccc1 | 36 |  |  |  |
| CN(Cc1ccccc1)C(=O)N1C(=O)C[C@@H]1Cc1ccccc1 | 36 |  |  |  |
| O=C1C[C@H](Cc2ccccc2)N1C(=O)N(Cc1ccccc1)OCc1ccccc1 | < 12 |  |  |  |
| O=C1C[C@H](Cc2ccccc2)N1C(=O)NCc1ccccn1 | 36 |  |  |  |
| C[C@H]1C(=O)N(C(=O)NCc2ccncc2)[C@H]1Cc1ccccc1 | 36 | 19 |  |  |
| O=C1C[C@H](Cc2ccccc2)N1C(=O)Nc1ccc(F)cc1 | < 12 |  |  |  |
| CO[C@@H]1C(=O)N(C(=O)NCc2ccncc2)[C@H]1Cc1ccccc1 | < 12 | 0.3 | 4.42 | 6.05 |
| Cc1ccc(NC(=O)N2C(=O)C[C@@H]2Cc2ccccc2)cc1 | < 12 |  |  |  |
| CC[C@@H]1C(=O)N(C(=O)NCc2ccncc2)[C@H]1Cc1ccccc1 | 48 | 1.7 | 4.72 |  |
| O=C1C[C@H](Cc2ccccc2)N1C(=O)Nc1ccccc1 | < 12 |  |  |  |
| CON(Cc1ccccc1)C(=O)N1C(=O)C[C@@H]1Cc1ccccc1 | < 12 |  |  |  |
| C[C@@H]1C(=O)N(C(=O)NCc2ccncc2)[C@H]1Cc1ccccc1 | 36 | 53 |  |  |
| O=C1C[C@H](Cc2ccccc2)N1C(=O)N(Cc1ccccc1)C1CC1 | 48 |  |  |  |
| O=C1C[C@H](Cc2ccccc2)N1C(=O)NCc1ccccc1 | 36 |  |  |  |
| CS[C@@H]1C(=O)N(C(=O)NCc2ccncc2)[C@H]1Cc1ccccc1 | < 12 | < 0.2 | 5.66 | > 6.70 |
| C=CC[C@@H]1C(=O)N(C(=O)NCc2ccncc2)[C@H]1Cc1ccccc1 | 36 | 4.7 | 5.22 | 6.52 |
| CCN(Cc1ccccc1)C(=O)N1C(=O)C[C@@H]1Cc1ccccc1 | 48 |  |  |  |
| COc1ccc(NC(=O)N2C(=O)C[C@@H]2Cc2ccccc2)cc1 | 12 |  |  |  |
| O=C1C[C@H](Cc2ccccc2)N1C(=O)NCc1ccncc1 | 24 | > 75 | < 4.12 | < 4.12 |
| O=C1C[C@H](Cc2ccccc2)N1C(=O)NC1CCCCC1 | 24 |  |  |  |
| O=C1C[C@H](Cc2ccccc2)N1C(=O)NCc1cccnc1 | 24 |  |  |  |
| CC1(C)C(=O)N(C(=O)NCc2ccncc2)[C@H]1Cc1ccccc1 | 120 | 45 | < 4.12 | 5.52 |
| CC1(C)C(=O)N(C(=O)NCc2ccncc2)C1Cc1ccccc1 (single isomer, unassigned) | 120 |  |  |  |
